Substitutions are numbered along the chain they refer to. Blank lines part the entries; values can stand above or below the compound they belong to.
Columns and labels:
[1] = target: T1, mtAT2R (Rattus norvegicus, UniProt P35351); assay: Mitochondrial respiration, isolated rat heart mitochondria (Seahorse XF96); assay type: biochemical
T1 construct: we examined effects on respiration in rat heart mitochondria; from tissue; host or cells: isolated rat heart or liver mitochondria
T1 sequence (P35351 1-363): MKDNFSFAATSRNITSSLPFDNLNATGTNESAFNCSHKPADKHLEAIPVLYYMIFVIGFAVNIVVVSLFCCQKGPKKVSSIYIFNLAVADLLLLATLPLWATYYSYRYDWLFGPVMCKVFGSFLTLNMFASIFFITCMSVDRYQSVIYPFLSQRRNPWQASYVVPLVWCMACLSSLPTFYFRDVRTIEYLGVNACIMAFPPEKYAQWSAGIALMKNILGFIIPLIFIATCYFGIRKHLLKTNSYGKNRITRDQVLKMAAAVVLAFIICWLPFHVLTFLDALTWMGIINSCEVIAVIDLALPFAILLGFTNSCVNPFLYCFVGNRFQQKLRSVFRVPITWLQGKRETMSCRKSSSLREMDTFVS
Procedure: Mitochondrial Respiration. For monitoring respiration, isolated mitochondria from rat heart or liver (10 μg of protein per well) were aliquoted into 96 wells of a polyethyleneimine-coated XF96 cell culture microplate (Seahorse Bioscience). The plate was centrifuged at 3,000×g for 10 minutes at 4° C. in an A-4-62 rotor, which control experiments determined caused an attachment of isolated mitochondria that was sufficiently robust to withstand the mixing protocols of the machine. Mitochondria were placed in 300 μL per well of mitochondrial buffer [20 mM Hepes, 137 mM KCl, 2.5 mM MgCl2, 2 mM K2HPO4, 0.5 mM EGTA, and 0.2% (wt/vol) BSA (pH 7.3) at 37° C.]J. Plates were used immediately. The cell culture microplate was incubated and loaded into the Seahorse XF96 extracellular flux analyzer following the manufacturer's instructions. All experiments were performed at 37° C.
Oxygen consumption rate data points refer to the mean rates during the measurement cycles, which consisted of a mixing time of 30 s and a wait time of 2 minutes followed by a data acquisition period of 10 minutes (50 data points). […] The oxygen consumption rates were determined by using a compartment model-based deconvolution algorithm, which compensated for oxygen diffusion phenomena occurring around the entrapped volume and for the response time of the probe. […]

[2] = target: T2, mtAT2R (Mus musculus, UniProt P35374); assay: NO production in isolated kidney mitochondria (NO fluorescent probe); assay type: biochemical; conditions: PD-123319 1 μM; P<0.01
T2 construct: from tissue; host or cells: isolated kidney mitochondria
T2 sequence (P35374 1-363): T1 sequence (P35351 1-363) with L18R, A40S, V88L, S352G
Procedure: Measurement of Nitric Oxide (NO) Production in Isolated Mitochondria. Kidney mitochondria were isolated by homogenization and differential centrifugation in a medium containing […] of 1 M sucrose, 12 mL of 1 M mannitol, 2.5 mL of 1 M KCL, 1 M Tris-HCL, 0.5 mL of 1 M EDTA, 1.5 mL of 0.1 M EGTA, and 0.1% BSA (pH 7.4). Mitochondria were suspended in incubation solution. Total mitochondrial protein was determined by a Lowry Protein Assay Kit (Sigma-Aldrich). […] The fluorescent products were measured by using a reader equipped with Cyanine 5 (650/670 nm).
AT2Rs Modulate Mitochondrial NO Production. To determine whether mtAT2R activation might modulate mitochondrial NO production in a manner analogous to the actions of non-mtAT2Rs on other NO isoforms, the direct effects of AT2R agonists and antagonists were determined on isolated kidney mitochondria. […] Fluorescence signal was measured by using a multimode microplate reader equipped with Cyanine 5 (650/670 nm). Treatment of mitochondria with CGP421140 caused a concentration-dependent increase in mitochondrial NO production (FIG. 6A); specifically, 10 nM was sufficient to stimulate NO production [from 0.52±0.0009 fluorescence arbitrary units (AU) at baseline control to 0.6+0.01 AU, P<0.001]. […]

[3] = Blood pressure and general health of mice on chronic losartan
Procedure: Human and Animal Groups. Mitochondria were studied in adult human monocytes (20-30 y old), adult human skeletal muscle tissue, adult rats (24 wk old), adult (20 wk old) and aged (70 wk old) mice, and a human cell line. Adult mice at 50 wk of age were treated with the AT1R blocker losartan at doses of 40-60 mg/kg per day for 20 wk. All experiments were approved by the Johns Hopkins Animal Care and use Committee and the Johns Hopkins Institutional Review Board. Weight, blood urea nitrogen, creatinine, and albumin were measured in adult (20 wk) and aged (70 wk) mice and in aged mice on losartan treatment. […] We visually inspected each animal carcass after the dissection for any abnormalities.

[4] = tested on: 8-mm excisional wounds; assay: Full thickness excisional wound healing, daily topical cream; assay type: in vivo, mice; conditions: after three days of treatment, FIG. 8
Procedure: For wound-healing experiments, animal procedures were approved by the Johns Hopkins University Animal Care and Use Committee. During the experiments the animals were-housed one per cage, maintained under controlled environmental conditions (12 hours light to dark cycle, temperature approximately 23° C.), and provided with standard laboratory food and water ad libitum. 16 male mice with average weight of 30 g were divided into two groups. Mice were anesthetized with ketamine hydrochloride (100 mg/kg) and xylazine (10 mg/kg), and the dorsum was shaved and then treated with a depilatory (Nair cream, Church & Dwight Co., Princeton, N.J.). Two symmetrical full thickness excisional wounds created on their back using an 8-mm punch biopsy instrument. No dressing was used after burn. The animals were resuscitated according to the Parkland formula (4 mL/kg/percent body area) by intraperitoneal injection of saline within 1 hour after wound. Animals were divided into two groups; A and B. One group received daily application of an angiotensin receptor blocker cream to both wounds per animal and the other received vehicle. Researchers were blinded to the identity of the cream applied. We used digital photography and computerized planimetry to assess the rate of wound healing in either group.

[5] = tested on: mtAT1R; assay: Immunoelectron microscopy of mtAT1R in kidney tubular cells of aged mice on chronic losartan; assay type: in vivo, C57BL/6 mice; conditions: 70-wk-old mice, losartan 40-60 mg/kg per day for 20 wk; aged untreated 12.7+5.8, young 2.0+2.2
Procedure: (§1) Immunolocalization of AT1R, AT2R, and Ang. Immunogold electron microscopy was performed as described (Am. J. Physiol. Endocrinot. Metab., 286:E1011-E1022 (2004)). In brief, mouse tissues were fixed in 4% formaldehyde in 0.1 M sodium cacodylate supplemented with 3% sucrose (wt/vol) and 3 mM CaCl2 and cryoprotected in 2.3 M sucrose overnight in polyvinylpyrrolidone (Sigma). Ultrathin sections were cut on a Leica Ultracut UCT microtome, and sections were placed on Formvar-coated nickel 200-mesh hexagonal grids. The sections were incubated in primary antibody against rabbit anti-AT2R, goat anti-Ang, or goat anti-AT1R antibody overnight at 4° C. at a concentration of 10 μg/mL. […] Primary antibodies were detected with either 6-nm colloidal gold donkey anti-goat or 12-nm colloidal goat anti-rabbit (Jackson ImmunoResearch) diluted 1:20 in PBS for 1 hour. Final contrasting of the sections was done by incubating them in 2% methyl cellulose (Sigma) and 0.3% uranyl acetate (Ted Pella) for 10 min at 4° C. All sections were viewed with a Philips CM 120 TEM transmission electron microscope at an accelerating voltage of 80 kV. Images were taken with a Gatan Orius SC 1000 digital camera. Photographs for representative sections were taken.

[6] = tested on: wounds; assay: Wound healing in db/db mice, losartan started at different phases; assay type: in vivo, BKS.Cg-m+/+Lepr^db/J(db/db) mice; conditions: 8 week old db/db mice; preliminary data
Source text: In order to provide additional rationale for using losartan ointment at day 7 of wound treatment, preliminary data was developed on the effects of losartan on all phases of wound healing in 8 week old BKS.Cg-m+/+Lepr^db/J(db/db) mice (FIGS. 11, 12).

[7] = tested on: mtAT2R; assay: Immunoelectron microscopy of mtAT2R in kidney tubular cells of aged mice on chronic losartan; assay type: in vivo, C57BL/6 mice; conditions: 70-wk-old mice, losartan 40-60 mg/kg per day for 20 wk; aged untreated 10.2+2.2, young 25.5+6.2
Procedure: as §1

SMILES: COC(=O)[C@@H](N)CCCNC(=N)N[N+](=O)[O-] [L-NAME, L-N^G-nitroarginine methyl ester]
CGP421140-inhibited state 3 respiration reversed by L-NAME ([1]; 100 nM CGP421140 + L-NAME 1 μM, P<0.05): 67.4±4.3 pmol/min per μg

CGP421140-stimulated NO production after pretreatment with PD-123319 [2]: 0.55±0.006 AU | CGP421140-inhibited state 3 respiration restored by PD-123319 ([1]; 100 nM CGP421140 + PD-123319 1 μM, P<0.01): 66.83±2.1 pmol/min per μg
SMILES: Cc1cc(Cn2cnc3c2C[C@@H](C(=O)O)N(C(=O)C(c2ccccc2)c2ccccc2)C3)ccc1N(C)C [PD-123319]

SMILES: CCCCc1nc(Cl)c(CO)n1Cc1ccc(-c2ccccc2-c2nn[nH]n2)cc1 [losartan]
evidence of malignancy on carcass inspection ([3]; 10 animals per group): did not observe any evidence of malignancy | weight, blood urea nitrogen, creatinine, and albumin ([3]; adult, aged and aged mice on losartan, data not shown): no significant difference | decrease in blood pressure ([3]; losartan 40-60 mg/kg per day for 20 wk): 10-15% | wound granulation versus vehicle [4]: more granulation | mtAT1R expression [5]: 11.0+2.1 gold-labeled AT1R per mitochondrion | healing and elasticity, treatment starting at day 7 compared to day 1 [6]: accelerated healing and improved elasticity | mtAT2R expression [7]: 39.0+2.6 gold-labeled AT2R per mitochondrion
